# Reference: ChEMBL document CHEMBL3608284, “C4 phenyl aporphines with selective h5-HT(2B) receptor affinity” (Bioorg Med Chem Lett, 2015)
# pKi: −log10 of the molar value.
# How the values were obtained:
# [1] = target: 5-hydroxytryptamine receptor 1E (Homo sapiens) (UniProt P28566); assay: Displacement of [3H]5HT from 5HT1E receptor (unknown origin) at 10 uM
# [2] = target: T1, 5-hydroxytryptamine receptor 2C (Homo sapiens) (UniProt P28335); assay: Displacement of [3H]mesulergine from 5HT2C receptor (unknown origin) at 10 uM
# T1 sequence (whole entry): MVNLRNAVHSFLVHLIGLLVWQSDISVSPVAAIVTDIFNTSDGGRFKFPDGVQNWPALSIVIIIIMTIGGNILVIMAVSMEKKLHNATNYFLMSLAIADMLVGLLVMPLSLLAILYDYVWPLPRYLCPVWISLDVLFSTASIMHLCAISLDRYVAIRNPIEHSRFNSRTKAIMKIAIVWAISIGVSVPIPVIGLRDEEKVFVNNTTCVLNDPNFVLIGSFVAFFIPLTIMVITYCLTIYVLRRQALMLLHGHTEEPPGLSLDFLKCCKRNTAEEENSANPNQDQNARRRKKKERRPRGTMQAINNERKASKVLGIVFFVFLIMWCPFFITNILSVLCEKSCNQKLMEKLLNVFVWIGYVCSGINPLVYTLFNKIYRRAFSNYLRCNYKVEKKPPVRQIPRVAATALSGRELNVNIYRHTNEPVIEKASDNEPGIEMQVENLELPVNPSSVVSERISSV
# [3] = target: T2, 5-hydroxytryptamine receptor 3A (Homo sapiens) (UniProt P46098); assay: Displacement of [3H]LY278584 from 5HT3 receptor (unknown origin) at 10 uM
# T2 sequence (whole entry): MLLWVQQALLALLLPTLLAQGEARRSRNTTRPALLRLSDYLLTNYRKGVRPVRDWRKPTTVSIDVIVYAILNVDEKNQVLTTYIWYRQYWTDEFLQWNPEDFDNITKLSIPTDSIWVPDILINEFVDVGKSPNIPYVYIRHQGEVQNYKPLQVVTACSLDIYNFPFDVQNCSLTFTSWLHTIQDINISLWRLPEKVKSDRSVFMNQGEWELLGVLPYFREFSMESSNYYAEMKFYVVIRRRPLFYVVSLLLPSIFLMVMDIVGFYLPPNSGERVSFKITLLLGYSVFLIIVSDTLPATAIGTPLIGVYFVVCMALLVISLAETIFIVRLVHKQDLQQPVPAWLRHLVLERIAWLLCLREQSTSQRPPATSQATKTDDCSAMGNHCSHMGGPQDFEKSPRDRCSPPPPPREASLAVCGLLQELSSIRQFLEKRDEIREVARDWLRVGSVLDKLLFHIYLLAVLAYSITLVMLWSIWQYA
# [4] = target: 5-hydroxytryptamine receptor 7 (Homo sapiens) (UniProt P34969); assay: Displacement of [3H]LSD from 5HT7 receptor (unknown origin) at 10 uM
# [5] = target: Alpha-1A adrenergic receptor (Homo sapiens) (UniProt P35348); assay: Binding affinity to alpha1A adrenoceptor (unknown origin) at 10 uM
# [6] = target: Alpha-1B adrenergic receptor (Homo sapiens) (UniProt P35368); assay: Binding affinity to alpha1B adrenoceptor (unknown origin) at 10 uM
# [7] = target: Alpha-1D adrenergic receptor (Homo sapiens) (UniProt P25100); assay: Binding affinity to alpha1D adrenoceptor (unknown origin) at 10 uM
# [8] = target: Beta-1 adrenergic receptor (Homo sapiens) (UniProt P08588); assay: Binding affinity to beta1 adrenoceptor (unknown origin) at 10 uM
# [9] = target: Beta-2 adrenergic receptor (Homo sapiens) (UniProt P07550); assay: Binding affinity to beta2 adrenoceptor (unknown origin) at 10 uM
# [10] = target: Beta-3 adrenergic receptor (Homo sapiens) (UniProt P13945); assay: Binding affinity to beta3 adrenoceptor (unknown origin) at 10 uM
# Rattus norvegicus = organism: Rattus norvegicus; assay: Binding affinity to benzodiazepine receptor in rat brain; type: tissue-based; conditions: concentration not given here
# [11] = target: D(2) dopamine receptor (Homo sapiens) (UniProt P14416); assay: Binding affinity to dopamine D2 receptor (unknown origin) at 10 uM
# [12] = target: D(3) dopamine receptor (Homo sapiens) (UniProt P35462); assay: Binding affinity to dopamine D3 receptor (unknown origin) at 10 uM
# [13] = target: D(1B) dopamine receptor (Homo sapiens) (UniProt P21918); assay: Binding affinity to dopamine D5 receptor (unknown origin) at 10 uM
# [14] = target: Sodium-dependent dopamine transporter (Homo sapiens) (UniProt Q01959); assay: Binding affinity to DAT (unknown origin) at 10 uM
# [15] = target: Delta-type opioid receptor (Homo sapiens) (UniProt P41143); assay: Binding affinity to DOR (unknown origin) at 10 uM
# [16] = target: GABA-A receptor; agonist GABA site (Homo sapiens) (UniProt P14867+P47870+P28472+P48169+P34903+P18505+P47869+P31644+Q16445); assay: Binding affinity to GABAA receptor (unknown origin) at 10 uM; type: protein-complex assay
# [17] = target: Histamine H1 receptor (Homo sapiens) (UniProt P35367); assay: Binding affinity to histamine H1 receptor (unknown origin) at 10 uM
# [18] = target: Histamine H2 receptor (Homo sapiens) (UniProt P25021); assay: Binding affinity to histamine H2 receptor (unknown origin) at 10 uM
# [19] = target: Histamine H3 receptor (Homo sapiens) (UniProt Q9Y5N1); assay: Binding affinity to histamine H3 receptor (unknown origin) at 10 uM
# [20] = target: Histamine H4 receptor (Homo sapiens) (UniProt Q9H3N8); assay: Binding affinity to histamine H4 receptor (unknown origin) at 10 uM
# [21] = target: Muscarinic acetylcholine receptor M2 (Homo sapiens) (UniProt P08172); assay: Binding affinity to muscarinic M2 receptor (unknown origin) at 10 uM
# [22] = target: Muscarinic acetylcholine receptor M3 (Homo sapiens) (UniProt P20309); assay: Binding affinity to muscarinic M3 receptor (unknown origin) at 10 uM
# [23] = target: Muscarinic acetylcholine receptor M4 (Homo sapiens) (UniProt P08173); assay: Binding affinity to muscarinic M4 receptor (unknown origin) at 10 uM
# [24] = target: Muscarinic acetylcholine receptor M5 (Homo sapiens) (UniProt P08912); assay: Binding affinity to muscarinic M5 receptor (unknown origin) at 10 uM
# [25] = target: Sodium-dependent serotonin transporter (Homo sapiens) (UniProt P31645); assay: Binding affinity to SERT (unknown origin) at 10 uM
# [26] = target: Sigma non-opioid intracellular receptor 1 (Homo sapiens) (UniProt Q99720); assay: Binding affinity to sigma-1 receptor (unknown origin) at 10 uM
# Sigma 2 receptor = assay: Binding affinity to sigma-2 receptor (unknown origin) at 10 uM; conditions: Homo sapiens
# [27] = target: 5-hydroxytryptamine receptor 6 (Homo sapiens, UniProt P50406); assay: Binding affinity to 5HT6 receptor (unknown origin)
# [28] = target: Muscarinic acetylcholine receptor M1 (Homo sapiens, UniProt P11229); assay: Binding affinity to muscarinic M1 receptor (unknown origin)
# Translocator protein = Translocator protein (Homo sapiens, UniProt P30536); assay: Binding affinity to PBR (unknown origin)
# Sodium-dependent dopamine transporter (Homo sapiens), sequence (Q01959 whole entry): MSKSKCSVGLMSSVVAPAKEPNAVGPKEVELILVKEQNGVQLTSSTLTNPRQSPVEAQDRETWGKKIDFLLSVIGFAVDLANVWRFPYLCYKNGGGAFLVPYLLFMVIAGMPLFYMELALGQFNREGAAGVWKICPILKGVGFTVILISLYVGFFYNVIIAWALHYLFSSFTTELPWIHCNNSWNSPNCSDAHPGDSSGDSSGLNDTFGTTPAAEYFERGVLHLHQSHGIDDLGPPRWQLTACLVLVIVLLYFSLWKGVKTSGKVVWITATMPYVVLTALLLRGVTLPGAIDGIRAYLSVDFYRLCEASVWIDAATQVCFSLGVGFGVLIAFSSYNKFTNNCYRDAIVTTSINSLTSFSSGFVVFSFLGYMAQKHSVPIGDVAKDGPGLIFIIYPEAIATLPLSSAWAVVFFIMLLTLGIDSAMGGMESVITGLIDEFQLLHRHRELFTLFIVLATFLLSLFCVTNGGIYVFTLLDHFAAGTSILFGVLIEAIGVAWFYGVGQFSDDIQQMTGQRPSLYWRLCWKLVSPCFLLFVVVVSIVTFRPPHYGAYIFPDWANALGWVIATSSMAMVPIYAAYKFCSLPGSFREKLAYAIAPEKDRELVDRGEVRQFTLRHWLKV
# Muscarinic acetylcholine receptor M2 (Homo sapiens), sequence (P08172 whole entry): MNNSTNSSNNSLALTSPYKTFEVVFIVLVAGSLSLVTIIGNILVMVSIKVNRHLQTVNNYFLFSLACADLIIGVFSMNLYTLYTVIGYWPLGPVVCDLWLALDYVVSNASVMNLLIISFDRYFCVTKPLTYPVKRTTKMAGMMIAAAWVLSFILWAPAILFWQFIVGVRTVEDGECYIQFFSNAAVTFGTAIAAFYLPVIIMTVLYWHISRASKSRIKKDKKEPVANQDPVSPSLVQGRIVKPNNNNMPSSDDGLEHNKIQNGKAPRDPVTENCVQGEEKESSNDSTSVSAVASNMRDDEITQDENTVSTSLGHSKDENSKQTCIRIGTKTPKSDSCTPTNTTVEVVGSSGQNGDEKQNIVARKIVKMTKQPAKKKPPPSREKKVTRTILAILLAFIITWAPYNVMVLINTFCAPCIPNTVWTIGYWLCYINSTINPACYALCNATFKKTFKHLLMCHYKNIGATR
# Histamine H1 receptor (Homo sapiens), sequence (P35367 whole entry): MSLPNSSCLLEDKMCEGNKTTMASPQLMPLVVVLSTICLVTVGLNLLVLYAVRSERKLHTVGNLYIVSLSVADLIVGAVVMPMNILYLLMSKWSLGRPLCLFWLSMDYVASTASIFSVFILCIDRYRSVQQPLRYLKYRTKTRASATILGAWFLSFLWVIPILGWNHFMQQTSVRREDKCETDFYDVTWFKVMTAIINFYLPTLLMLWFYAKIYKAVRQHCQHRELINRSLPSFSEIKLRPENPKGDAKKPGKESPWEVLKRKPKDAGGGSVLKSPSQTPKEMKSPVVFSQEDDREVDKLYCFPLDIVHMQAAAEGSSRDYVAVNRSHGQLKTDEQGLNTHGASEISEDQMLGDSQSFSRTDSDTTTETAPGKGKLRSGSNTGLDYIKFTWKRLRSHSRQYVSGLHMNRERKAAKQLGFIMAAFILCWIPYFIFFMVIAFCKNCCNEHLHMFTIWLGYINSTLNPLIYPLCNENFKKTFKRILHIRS
# Histamine H3 receptor (Homo sapiens), sequence (Q9Y5N1 whole entry): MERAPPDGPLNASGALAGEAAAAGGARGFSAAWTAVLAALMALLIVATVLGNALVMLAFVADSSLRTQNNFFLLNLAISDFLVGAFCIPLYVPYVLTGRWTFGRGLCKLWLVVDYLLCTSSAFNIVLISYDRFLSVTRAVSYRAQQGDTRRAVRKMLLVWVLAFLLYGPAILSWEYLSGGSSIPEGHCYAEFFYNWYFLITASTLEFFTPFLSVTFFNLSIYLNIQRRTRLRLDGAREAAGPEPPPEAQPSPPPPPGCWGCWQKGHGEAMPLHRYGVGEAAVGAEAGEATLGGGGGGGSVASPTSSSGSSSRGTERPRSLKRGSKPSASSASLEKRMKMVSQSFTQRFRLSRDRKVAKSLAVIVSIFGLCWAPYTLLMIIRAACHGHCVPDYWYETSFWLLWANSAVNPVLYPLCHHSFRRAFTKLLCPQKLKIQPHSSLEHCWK
# D(2) dopamine receptor (Homo sapiens), sequence (P14416 whole entry): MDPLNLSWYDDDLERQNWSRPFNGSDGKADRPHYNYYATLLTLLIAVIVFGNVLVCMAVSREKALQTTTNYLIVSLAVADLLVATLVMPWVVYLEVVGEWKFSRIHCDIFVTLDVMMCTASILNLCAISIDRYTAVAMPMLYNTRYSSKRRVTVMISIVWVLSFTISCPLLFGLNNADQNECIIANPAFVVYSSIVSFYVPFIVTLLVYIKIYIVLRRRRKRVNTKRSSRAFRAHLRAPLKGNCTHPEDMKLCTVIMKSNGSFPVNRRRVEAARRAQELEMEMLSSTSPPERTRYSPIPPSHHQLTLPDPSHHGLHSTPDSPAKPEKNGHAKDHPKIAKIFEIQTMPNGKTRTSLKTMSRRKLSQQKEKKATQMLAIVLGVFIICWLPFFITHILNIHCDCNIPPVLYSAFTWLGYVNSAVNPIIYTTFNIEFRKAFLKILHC
# Muscarinic acetylcholine receptor M4 (Homo sapiens), sequence (P08173 whole entry): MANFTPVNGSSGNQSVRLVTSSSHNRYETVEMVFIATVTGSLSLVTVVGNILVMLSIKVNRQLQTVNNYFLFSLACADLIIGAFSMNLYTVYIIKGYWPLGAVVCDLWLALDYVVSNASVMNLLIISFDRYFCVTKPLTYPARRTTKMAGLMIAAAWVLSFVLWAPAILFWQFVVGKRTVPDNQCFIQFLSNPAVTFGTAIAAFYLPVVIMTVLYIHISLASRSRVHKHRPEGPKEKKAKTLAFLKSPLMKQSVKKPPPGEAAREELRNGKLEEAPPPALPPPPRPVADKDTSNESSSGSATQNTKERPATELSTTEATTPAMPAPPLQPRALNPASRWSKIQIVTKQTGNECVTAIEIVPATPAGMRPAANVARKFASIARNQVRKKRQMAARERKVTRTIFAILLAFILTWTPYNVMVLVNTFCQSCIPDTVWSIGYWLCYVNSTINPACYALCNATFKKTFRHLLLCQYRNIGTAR
# Beta-2 adrenergic receptor (Homo sapiens), sequence (P07550 whole entry, looked up): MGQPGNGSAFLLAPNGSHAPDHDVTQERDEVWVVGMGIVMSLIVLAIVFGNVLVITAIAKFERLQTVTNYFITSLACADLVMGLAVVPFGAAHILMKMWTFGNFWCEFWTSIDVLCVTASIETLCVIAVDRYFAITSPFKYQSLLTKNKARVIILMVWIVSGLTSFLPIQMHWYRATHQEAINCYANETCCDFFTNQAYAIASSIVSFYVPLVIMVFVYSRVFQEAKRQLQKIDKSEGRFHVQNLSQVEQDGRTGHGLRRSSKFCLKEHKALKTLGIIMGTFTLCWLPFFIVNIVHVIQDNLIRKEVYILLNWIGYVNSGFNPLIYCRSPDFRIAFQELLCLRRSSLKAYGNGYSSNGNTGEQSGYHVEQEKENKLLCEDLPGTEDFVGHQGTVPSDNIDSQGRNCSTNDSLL
# Sodium-dependent serotonin transporter (Homo sapiens), sequence (P31645 whole entry, looked up): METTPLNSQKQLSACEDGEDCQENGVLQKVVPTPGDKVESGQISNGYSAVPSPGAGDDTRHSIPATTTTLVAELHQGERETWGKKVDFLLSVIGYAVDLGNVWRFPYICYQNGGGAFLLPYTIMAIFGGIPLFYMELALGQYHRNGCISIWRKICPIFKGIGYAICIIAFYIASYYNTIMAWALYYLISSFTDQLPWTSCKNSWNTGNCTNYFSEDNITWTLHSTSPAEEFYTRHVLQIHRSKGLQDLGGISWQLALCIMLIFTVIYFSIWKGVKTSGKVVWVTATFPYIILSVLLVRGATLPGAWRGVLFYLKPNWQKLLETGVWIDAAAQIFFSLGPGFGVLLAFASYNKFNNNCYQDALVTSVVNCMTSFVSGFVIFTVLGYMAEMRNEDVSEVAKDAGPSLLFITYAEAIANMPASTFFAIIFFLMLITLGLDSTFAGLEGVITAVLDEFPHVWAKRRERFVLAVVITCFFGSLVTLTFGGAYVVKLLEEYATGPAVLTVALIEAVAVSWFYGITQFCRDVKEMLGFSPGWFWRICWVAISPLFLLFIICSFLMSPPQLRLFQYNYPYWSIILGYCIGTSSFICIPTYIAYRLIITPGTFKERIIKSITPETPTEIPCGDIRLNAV
# Beta-1 adrenergic receptor (Homo sapiens), sequence (P08588 whole entry, looked up): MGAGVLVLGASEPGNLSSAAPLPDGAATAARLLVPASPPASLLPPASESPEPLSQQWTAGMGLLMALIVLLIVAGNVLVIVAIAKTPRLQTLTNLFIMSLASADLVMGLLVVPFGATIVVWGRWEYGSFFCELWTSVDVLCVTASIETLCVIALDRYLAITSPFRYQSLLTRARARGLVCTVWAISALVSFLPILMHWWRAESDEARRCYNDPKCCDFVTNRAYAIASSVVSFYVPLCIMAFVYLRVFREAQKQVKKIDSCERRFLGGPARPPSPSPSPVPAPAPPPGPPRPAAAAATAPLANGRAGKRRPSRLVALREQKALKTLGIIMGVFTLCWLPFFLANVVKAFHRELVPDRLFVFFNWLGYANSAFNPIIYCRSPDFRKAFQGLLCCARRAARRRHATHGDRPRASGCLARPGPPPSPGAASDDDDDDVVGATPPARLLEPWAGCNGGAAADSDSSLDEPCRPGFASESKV
# Beta-3 adrenergic receptor (Homo sapiens), sequence (P13945 whole entry, looked up): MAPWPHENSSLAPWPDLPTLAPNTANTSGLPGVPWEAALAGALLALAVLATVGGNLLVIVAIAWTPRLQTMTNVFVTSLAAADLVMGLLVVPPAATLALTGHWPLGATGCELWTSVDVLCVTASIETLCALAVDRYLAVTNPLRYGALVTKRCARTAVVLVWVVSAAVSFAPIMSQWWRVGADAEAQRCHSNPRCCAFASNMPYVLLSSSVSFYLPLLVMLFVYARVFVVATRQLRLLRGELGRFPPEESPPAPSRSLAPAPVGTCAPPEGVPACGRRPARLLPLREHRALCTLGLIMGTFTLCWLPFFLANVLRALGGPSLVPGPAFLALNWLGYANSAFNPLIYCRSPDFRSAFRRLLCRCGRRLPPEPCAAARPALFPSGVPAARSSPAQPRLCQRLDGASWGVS
compound,measurement,setting,value
COc1cc2c3c(c1OC)-c1cc4c(cc1CC3N(C)CC2c1ccccc1)OCO4 (stereo unspecified),inhibition,[1],10.1%
same,inhibition,[2],31.9%
same,inhibition,[3],8%
same,inhibition,[4],36.1%
same,inhibition,[5],< 50%
same,inhibition,[6],< 50%
same,inhibition,[7],< 50%
same,inhibition,[8],< 50%
same,inhibition,[9],< 50%
same,inhibition,[10],< 50%
same,inhibition,Rattus norvegicus,< 50%
same,inhibition,[11],< 50%
same,inhibition,[12],< 50%
same,inhibition,[13],< 50%
same,inhibition,[14],< 50%
same,inhibition,[15],< 50%
same,inhibition,[16],< 50%
same,inhibition,[17],< 50%
same,inhibition,[18],< 50%
same,inhibition,[19],< 50%
same,inhibition,[20],< 50%
same,inhibition,[21],< 50%
same,inhibition,[22],< 50%
same,inhibition,[23],< 50%
same,inhibition,[24],< 50%
same,inhibition,[25],< 50%
same,inhibition,[26],< 50%
same,inhibition,Sigma 2 receptor,< 50%
same,pKi,[27],6.20
same,pKi,[28],< 5.00
same,pKi,Translocator protein,5.54
